Data from paper PMC2778829, “Functional Characterization of the Canine Heme-Regulated eIF2α Kinase: Regulation of Protein Synthesis” (Advances in Hematology, 2009).

Key:
Type in all cases: biochemical
[1] = target: T1, mouse heme-regulated inhibitor (HRI), heme-regulated eIF2α kinase (Mus musculus, UniProt Q9Z2R9); test: in-vitro kinase assay (AlphaScreen) with purified HRI
T1 construct: gene Eif2ak1; expressed in Sf9 cells, purified by Ni-NTA

[2] = target: T2, canine heme-regulated inhibitor (HRI), heme-regulated eIF2α kinase (Canis lupus, UniProt C4PB17); test: AlphaScreen kinase assay with purified HRI, biotinylated Poly-GT substrate, […] ATP
T2 construct: full-length HRI, His6-tagged, expressed in Sf9 cells

[3] = target: T3, human heme-regulated inhibitor (HRI), heme-regulated eIF2α kinase (Homo sapiens, UniProt Q9BQI3); test: in-vitro kinase assay (AlphaScreen) with purified HRI
T3 construct: gene EIF2AK1; expressed in Sf9 cells, purified by Ni-NTA

Measured: IC50

T1 sequence (Q9Z2R9 whole entry): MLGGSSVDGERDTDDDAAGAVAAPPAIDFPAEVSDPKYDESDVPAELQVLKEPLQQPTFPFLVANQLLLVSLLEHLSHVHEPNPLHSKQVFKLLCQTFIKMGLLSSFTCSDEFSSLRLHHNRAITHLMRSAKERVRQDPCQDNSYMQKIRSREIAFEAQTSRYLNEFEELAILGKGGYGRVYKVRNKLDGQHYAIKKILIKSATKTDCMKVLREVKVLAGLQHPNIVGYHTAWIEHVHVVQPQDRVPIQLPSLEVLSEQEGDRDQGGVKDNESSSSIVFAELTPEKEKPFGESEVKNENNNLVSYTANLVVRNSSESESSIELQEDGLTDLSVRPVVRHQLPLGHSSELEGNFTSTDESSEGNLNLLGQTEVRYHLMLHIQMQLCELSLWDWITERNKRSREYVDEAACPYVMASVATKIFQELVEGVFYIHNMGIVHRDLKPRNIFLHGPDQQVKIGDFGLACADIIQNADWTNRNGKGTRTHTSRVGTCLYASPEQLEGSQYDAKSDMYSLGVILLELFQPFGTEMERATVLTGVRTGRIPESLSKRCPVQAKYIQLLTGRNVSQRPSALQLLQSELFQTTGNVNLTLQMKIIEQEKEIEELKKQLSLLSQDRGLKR
T2 sequence (C4PB17 1-630): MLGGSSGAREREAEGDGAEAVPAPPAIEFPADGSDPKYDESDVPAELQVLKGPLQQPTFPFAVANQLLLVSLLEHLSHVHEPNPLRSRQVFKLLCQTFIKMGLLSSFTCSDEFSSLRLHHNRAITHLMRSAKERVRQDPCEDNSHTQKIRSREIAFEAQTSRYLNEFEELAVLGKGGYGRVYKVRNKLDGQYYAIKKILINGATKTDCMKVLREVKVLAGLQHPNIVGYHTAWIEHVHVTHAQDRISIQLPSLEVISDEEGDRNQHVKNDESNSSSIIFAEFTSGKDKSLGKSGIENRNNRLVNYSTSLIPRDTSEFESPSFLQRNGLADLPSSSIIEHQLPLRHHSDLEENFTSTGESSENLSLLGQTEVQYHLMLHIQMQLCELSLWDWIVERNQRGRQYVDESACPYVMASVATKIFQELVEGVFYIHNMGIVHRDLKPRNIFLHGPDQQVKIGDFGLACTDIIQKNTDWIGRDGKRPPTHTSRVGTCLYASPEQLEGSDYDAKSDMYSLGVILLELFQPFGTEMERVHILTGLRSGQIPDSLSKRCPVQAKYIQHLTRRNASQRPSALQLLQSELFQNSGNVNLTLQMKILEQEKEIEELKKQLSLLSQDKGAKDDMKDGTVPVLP
T3 sequence (Q9BQI3 whole entry): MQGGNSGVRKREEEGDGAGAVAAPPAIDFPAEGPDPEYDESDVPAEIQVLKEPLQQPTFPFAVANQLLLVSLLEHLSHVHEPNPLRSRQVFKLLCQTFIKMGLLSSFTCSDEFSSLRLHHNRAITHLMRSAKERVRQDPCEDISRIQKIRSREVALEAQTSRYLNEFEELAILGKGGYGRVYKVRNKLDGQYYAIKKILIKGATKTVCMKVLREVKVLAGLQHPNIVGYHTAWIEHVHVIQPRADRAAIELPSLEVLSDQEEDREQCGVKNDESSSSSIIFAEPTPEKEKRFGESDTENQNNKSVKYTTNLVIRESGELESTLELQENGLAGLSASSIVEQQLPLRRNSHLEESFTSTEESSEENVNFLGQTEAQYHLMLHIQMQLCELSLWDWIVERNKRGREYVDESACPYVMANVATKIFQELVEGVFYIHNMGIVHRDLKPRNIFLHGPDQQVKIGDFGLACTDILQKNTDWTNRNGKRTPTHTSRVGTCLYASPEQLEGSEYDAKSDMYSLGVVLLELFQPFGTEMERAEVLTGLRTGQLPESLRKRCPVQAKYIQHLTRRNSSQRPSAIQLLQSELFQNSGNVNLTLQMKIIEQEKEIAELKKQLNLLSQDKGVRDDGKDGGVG

O=c1c(O)c(-c2ccc(O)c(O)c2)oc2cc(O)cc(O)c12 [quercetin, 3,3′,4′,5,7-pentahydroxyflavone]
~1000 nM: all assays above
